Test results taken from a melting point compilation (Tetko et al.; mined from patent text by program, amines drawn as free bases though some values may be those of a salt).

| Structure (SMILES) | melting point |
| --- | --- |
| N=C(N)NCCCc1cc[nH]n1 | 210 °C |
| CCOC(=O)c1ccc(CCc2cnc3[nH]c(N)nc(N)c2-3)cc1 | 202 to 204 °C |
| C=CC(C)(C)c1cc(CCC(=O)c2ccc(O)cc2)c(OC)cc1O | 154 °C |
| N#Cc1nn(-c2c(Cl)cc(C(F)(F)F)cc2Cl)c(F)c1S(=O)(=O)C(F)(F)F | 95 to 98 °C |
| CCCCc1nc2c(N)nc3cccnc3c2n1CCNC(=O)C1CCC(=O)O1 (stereo unspecified) | 153 to 154 °C |
| Cn1cc(-c2cccc(N3Cc4cc(C(C)(C)C)ccc4C3=O)c2CO)cc(Nc2ccc(C3CN(C(=O)OC(C)(C)C)C3)cn2)c1=O | 151 to 152 °C |
| CC(C)C1c2ccc(F)cc2CCC1(O)CC(=O)O (stereo unspecified) | 102 to 104 °C |
| CCC(CC)c1nn(-c2ccc(C(F)(F)F)nn2)cc1CCCOc1c(C)cccc1CC(=O)O | 76 to 77 °C |
| CC(C)(C)c1nc2cc(N3CCSCC3)c(N=C=S)cc2s1 | 155 to 159 °C |
| CNCCc1cc(Br)cc(-c2sccc2C)c1N | 68 to 70 °C |
| CCOC(=O)c1ccccc1N(CC(=O)N(C)c1ccccc1)C(=O)CNC(=O)Nc1cccc(C)c1 | 201 °C |
| CC1(O)c2ccccc2C=C(Br)c2ccncc21 (stereo unspecified) | 226 to 230 °C |
| CC(C)(C)OC(=O)NCc1cccc(CC(=O)O)c1 | 95 to 96.5 °C |
| CCOP(=O)(COCC(O)COn1cnc2c(N)ncnc21)OCC (stereo unspecified) | 84 to 85 °C |
| Cc1ccc([N+](=O)[O-])c(C)c1C(=O)c1c[nH]cn1 | 245 to 249 °C |
| COC1CCC2C3C(C)CC4=CC(=O)C(C)CC4(C)C3CCC12C (stereo unspecified) | 123 to 126 °C |
| O=C(O)/C=C/C=C/C=C/C1=Cc2ccccc2OC1 | 206 to 208 °C |
| CCOc1ccc(C2=NN(C3CCN(C(=O)CCCC(=O)O)CC3)C(=O)[C@@H]3CC=CC[C@H]23)cc1OCC | 133 to 135 °C |
| O=C(C=C(c1ccccc1)c1ccccc1)Nc1ccc(C(=O)O)cc1 | 222 to 224 °C |
| CCN(CC)CCN(c1ccc(C(=O)c2ccccc2)cc1)S(C)(=O)=O | 74 to 76 °C |
| CCOC(=O)c1c(C)nc(Cl)c([N+](=O)[O-])c1NC(C)(C)C | 35 to 36 °C |
| CC(=O)Oc1ccc(NCc2c(F)c(F)c(C(F)(F)F)c(F)c2F)cc1C(=O)O | 185 to 187 °C |
| CN(C(=O)Nc1nc(OCC(F)(F)F)cc(OCC(F)(F)F)n1)c1ccc(CC(F)(F)F)s1 | 99 to 101 °C |
| CCn1c(=O)cc(C)c2cc(C(O)(C(F)(F)F)C(F)(F)F)ccc21 | 91 to 92 °C |
| O=S(=O)(NC1C2CCC(C2)C1CO)c1ccccc1 (stereo unspecified) | 118 to 120 °C |
| Brc1ccc2noc(-c3ccccc3)c2c1 | 113 to 116 °C |

| Structure (SMILES) | melting point |
| --- | --- |
| CCCCN(CCCC)CCCOc1ccc(S(=O)(=O)c2c(C(C)(C)C)cn3ccccc23)cc1 | 90 to 92 °C |
| O=C1[C@@H](N2C(=O)c3ccccc3C2=O)[C@@H](CCl)N1Cc1ccccc1 (relative stereo) | 149 °C |
| COc1ccccc1COC(=O)c1ncn2c1[C@@H]1CCCN1C(=O)c1c(Cl)cccc1-2 | 178 to 179 °C |
| CC1CN(CC(=O)c2ccccc2)c2nc(-c3ccncc3)cc(=O)n2C1 (stereo unspecified) | 202 to 203 °C |
| C=CCNc1nc(NNC(C)(C)C)c2scc(C)c2n1 | 105 to 107 °C |
| CCc1nc2c(N)nc3ccccc3c2n1Cc1cc(-c2ccc(F)cc2)no1 | 232 to 233 °C |
| COc1cc2c(c(Br)c1OC(C)=O)Sc1cc(C)ccc1N2 | 193 to 194 °C |
| Cc1cc(C)c2c(-c3coc4cc(C)cc(C)c34)coc2c1 | 98 to 100 °C |
| CC(C)(C)OC(=O)NC[C@H](O)[C@@H](O)[C@H](O)[C@H](O)CO | 81 to 83 °C |
| Cc1cc(-n2cnnn2)cc(I)c1N | 172 to 175 °C |
| CCCCSc1cc(SCCCC)c2ccc3c(SCCCC)cc(SCCCC)c4ccc1c2c43 | 91 to 92 °C |
| CC(=O)NCCCC(=O)N1CC1C#N (stereo unspecified) | 72 to 75 °C |
| COc1ccc(S(=O)(=O)N2CC3CCC(CC3)C2)c2ccccc12 | 168 to 170 °C |
| COc1cc(C(C)=O)c(OC)c2c1C(C)(C)CCC2(C)C | 97 °C |
| CSc1nc(C)ccc1NC(=O)CCCCCCCCBr | 80 to 82 °C |
| O=C(CN1CC(O)CC1=O)Oc1ccc(Cl)c(Cl)c1Cl (stereo unspecified) | 84 to 86 °C |
| Clc1ccc(N2CCN(Cc3c[nH]c4ncccc34)CC2)cc1 | 226 to 227 °C |
| CCCCNC(=O)COC1C(O)C(CO)OC(Oc2ccc(N)cc2)C1O (stereo unspecified) | 135 °C |
| CC(C)(C)OC(=O)N1CCC(Oc2ccc(C3=NNC(=O)CC3)c(F)c2)CC1 | 146 to 148 °C |
| Cc1nn(-c2ccc(Cl)c3c2CC(C)O3)c(=O)[nH]1 (stereo unspecified) | 208 to 209 °C |
| COCCOc1cc2ncnc(NC3=CC(=O)C(Oc4ccc(-n5ccnc5)cc4)=CC3=O)c2cc1OCCOC | 109 to 115 °C |
| COc1cc(C)c(C(=O)c2c(Cl)cnc(Cl)c2C(F)(F)F)c(OC)c1OC | 106 to 109 °C |
| CCOC(=O)c1nc(OC)cc(OC)n1 | 54 to 55 °C |
| COc1ccc(S(C)(=O)=O)cc1C=O | 140 to 143 °C |
| Cc1cc(=O)c2cc(Oc3ccccc3)c(NS(C)(=O)=O)cc2o1 | 186 to 187 °C |
